Reference: EPA's ToxRefDB 2

Tests used:
mouse [1] = settings: Subchronic oral toxicity in rodents, b6c3f1, Feed, dose end: 12 week, group: systemic
rat [2] = settings: Combined chronic toxicity/carcinogenicity; fischer; Oral; Feed; dose end: 2 year; group: systemic; systemic / in life observation / body weight / body weight
mouse [3] = settings: Combined chronic toxicity/carcinogenicity, b6c3f1, Oral, Feed, dose end: 2 year, group: systemic
rat [4] = settings: Subchronic oral toxicity in rodents, fischer, Feed, dose end: 12 week, group: systemic
rat [5] = settings: Subchronic oral toxicity in rodents, fischer, Gavage/Intubation, dose end: 13 week
rat [6] = settings: Carcinogenicity, fischer, Oral, Gavage/Intubation, dose end: 105 week, group: systemic
mouse [7] = settings: Subchronic oral toxicity in rodents, b6c3f1, Gavage/Intubation, dose end: 22 week, group: systemic, systemic / in life observation / clinical signs / aggressive behavior + systemic / in life observation / clinical signs / convulsions + …
rat [8] = settings: Subchronic oral toxicity in rodents, fischer, Gavage/Intubation, dose end: 13 week, group: systemic, systemic / in life observation / clinical signs / aggressive behavior + systemic / in life observation / clinical signs / hypersensitivity…
mouse [9] = settings: Subchronic oral toxicity in rodents, b6c3f1, Gavage/Intubation, dose end: 13 week
mouse [10] = settings: Prenatal developmental toxicity study; cd1; Oral; Gavage/Intubation; dose end: 17 GD; group: developmental; systemic / in life observation / clinical signs / aggressive behavior + systemic / organ weight / testes / absolute
rat [11] = settings: Multigenerational reproductive toxicity study, sprague dawley, Oral, Feed, dose end: 2 generation
mouse [12] = settings: Carcinogenicity; b6c3f1; Oral; Feed; dose end: 103 week; group: systemic; systemic / in life observation / body weight / body weight
mouse [13] = settings: Carcinogenicity, b6c3f1, Oral, Feed, dose end: 2 year, group: systemic
dog = settings: Subchronic oral toxicity in nonrodent, beagle, Capsule, dose end: 26 week, group: systemic
mouse [14] = settings: Subchronic oral toxicity in rodents, b6c3f1, Feed, dose end: 13 week, group: systemic
rat [15] = settings: Combined chronic toxicity/carcinogenicity, fischer, Oral, Feed, dose end: 2 year, group: systemic
rat [16] = settings: Multigenerational reproductive toxicity study, sprague dawley, Oral, Feed, dose end: 2 generation; remark: listed apart in the source
rat [17] = settings: Carcinogenicity; fischer; Oral; Feed; dose end: 103 week; group: systemic; systemic / pathology microscopic / pituitary gland / hyperplasia
rat [18] = settings: Subchronic oral toxicity in rodents, fischer, Feed, dose end: 13 week, group: systemic
rat [19] = settings: Chronic toxicity, fischer, Oral, Feed, dose end: 103 week, group: systemic
rat [20] = settings: Prenatal developmental toxicity study, other, Oral, Gavage/Intubation, dose end: 19 GD
[21] = systemic / in life observation / body weight / body weight gain
[22] = systemic / in life observation / body weight / body weight + systemic / pathology microscopic / liver / carcinoma
[23] = systemic / pathology microscopic / liver / carcinoma
[24] = systemic / in life observation / body weight / body weight gain + systemic / pathology microscopic / bone marrow / hyperplasia + systemic / …
[25] = group: maternal, reproductive / reproductive performance / estrous cycle / abnormal
[26] = group: systemic, systemic / in life observation / body weight / body weight + systemic / in life observation / body weight / body weight gain
[27] = group: systemic, systemic / in life observation / clinical signs / aggressive behavior + systemic / in life observation / clinical signs / reactivity to …
[28] = systemic / in life observation / clinical signs / [other] + systemic / in life observation / clinical signs / convulsions
[29] = systemic / in life observation / clinical signs / [other] + systemic / in life observation / clinical signs / convulsions + systemic / …
[30] = group: systemic, systemic / in life observation / clinical signs / aggressive behavior + systemic / in life observation / clinical signs / convulsions + …
[31] = group: offspring, systemic / in life observation / clinical signs / [other]
[32] = group: parental, systemic / organ weight / liver / relative to body weight
[33] = systemic / in life observation / body weight / body weight + systemic / in life observation / body weight / body weight gain
[34] = systemic / in life observation / body weight / body weight + systemic / in life observation / body weight / body weight gain + systemic / in…
[35] = systemic / clinical chemistry / cholesterol / cholesterol + systemic / clinical chemistry / glucose / glucose + systemic / hematology / …
[36] = systemic / in life observation / body weight / body weight + systemic / in life observation / mortality / mortality + systemic / organ …
[37] = systemic / organ weight / liver / relative to body weight + systemic / organ weight / liver / absolute
[38] = systemic / in life observation / body weight / body weight + systemic / in life observation / food consumption / food consumption + systemic…
[39] = group: offspring, systemic / in life observation / body weight / offspring (pup) weight + systemic / in life observation / body weight / offspring (pup) …
[40] = group: parental, systemic / in life observation / body weight / body weight + systemic / in life observation / body weight / body weight gain
[41] = group: reproductive, reproductive / offspring survival early / litter size / litter size + reproductive / offspring survival early / birth index / live birth …
[42] = systemic / in life observation / body weight / body weight + systemic / in life observation / clinical signs / fur (altered appearance) + …
[43] = systemic / pathology microscopic / skin / subcutaneous mass
[44] = group: developmental, systemic / in life observation / body weight / fetal weight
[45] = group: maternal, systemic / in life observation / clinical signs / abnormal movements + systemic / in life observation / clinical signs / salivation

`O=S(=O)([O-])c1ccc(N=Nc2c(O)ccc3cc(S(=O)(=O)[O-])ccc23)cc1.[Na+].[Na+]` [FD&C Yellow 6] was tested, and the LEL (mouse [1]; [21]) was 900 mg/kg/day, the LOAEL (mouse [1]; [21]) was 15000 mg/kg/day and the NEL (mouse [1]; [21]) was < 900 mg/kg/day. For the same compound, the NOAEL (mouse [1]; systemic / in life observation / body weight / body weight gain + systemic / in life observation / body weight / body weight) was 7500 mg/kg/day, the LEL (rat [2]) was 1250 mg/kg/day and the LOAEL (rat [2]) was > 1250 mg/kg/day. The NEL (rat [2]) was 625 mg/kg/day, the NOAEL (rat [2]) was ≥ 1250 mg/kg/day and the LOAEL (mouse [3]; [22]) was > 3750 mg/kg/day. The NOAEL (mouse [3]; [22]) was ≥ 3750 mg/kg/day, the LEL (mouse [3]; [23]) was 1880 mg/kg/day and the NEL (mouse [3]; [23]) was < 1880 mg/kg/day. For the same compound, the LEL (rat [4]; [21]) was 625 mg/kg/day, the LOAEL (rat [4]; [21]) was 2500 mg/kg/day and the NEL (rat [4]; [24]) was 300 mg/kg/day. The NOAEL (rat [4]; [24]) was 1250 mg/kg/day.
With `CCCCCc1cc(O)c2c(c1)OC(C)(C)[C@@H]1CCC(C)=C[C@@H]21` [1-trans-delta-9-Tetrahydrocannabinol] the LEL (rat [5]; [25]) was 15 mg/kg/day, the LOAEL (rat [5]; [25]) was > 500 mg/kg/day and the NEL (rat [5]; [25]) was 5 mg/kg/day. The NOAEL (rat [5]; [25]) was ≥ 500 mg/kg/day, the LOAEL (rat [5]; [26]) was 15 mg/kg/day and the LEL (rat [5]; [27]) was 5 mg/kg/day. For the same compound, the NEL (rat [5]; [27]) was < 5 mg/kg/day, the NOAEL (rat [5]; [27]) was 5 mg/kg/day and the LOAEL (rat [6]; [28]) was 12.5 mg/kg/day. For the same compound, the NOAEL (rat [6]; [28]) was < 12.5 mg/kg/day, the LEL (rat [6]; [29]) was 12.5 mg/kg/day and the NEL (rat [6]; [29]) was < 12.5 mg/kg/day. The LEL (mouse [7]) was 5 mg/kg/day, the LOAEL (mouse [7]) was > 500 mg/kg/day and the NEL (mouse [7]) was < 5 mg/kg/day. For the same compound, the NOAEL (mouse [7]) was ≥ 500 mg/kg/day, the LEL (rat [8]) was 5 mg/kg/day and the LOAEL (rat [8]) was > 500 mg/kg/day. The NEL (rat [8]) was < 5 mg/kg/day, the NOAEL (rat [8]) was ≥ 500 mg/kg/day and the LEL (mouse [9]; [25]) was 5 mg/kg/day. The LOAEL (mouse [9]; [25]) was > 500 mg/kg/day, the NEL (mouse [9]; [25]) was < 5 mg/kg/day and the NOAEL (mouse [9]; [25]) was ≥ 500 mg/kg/day. For the same compound, the LOAEL (mouse [9]; [26]) was 500 mg/kg/day, the LEL (mouse [9]; [30]) was 5 mg/kg/day and the NEL (mouse [9]; [30]) was < 5 mg/kg/day. The NOAEL (mouse [9]; [30]) was 150 mg/kg/day.
With `Clc1ccc(C(c2ccccc2Cl)C(Cl)(Cl)Cl)cc1` (stereo not drawn) [o,p'-DDT] the LEL (mouse [10]) was 18 mg/kg/day, the LOAEL (mouse [10]) was > 180 mg/kg/day and the NEL (mouse [10]) was < 18 mg/kg/day. The NOAEL (mouse [10]) was ≥ 180 mg/kg/day, the LEL (rat [11]; [31]) was 10 mg/kg/day and the LOAEL (rat [11]; [31]) was > 10 mg/kg/day. The NEL (rat [11]; [31]) was 1 mg/kg/day, the NOAEL (rat [11]; [31]) was ≥ 10 mg/kg/day and the LEL (rat [11]; [32]) was 10 mg/kg/day. The LOAEL (rat [11]; [32]) was > 10 mg/kg/day, the NEL (rat [11]; [32]) was 1 mg/kg/day and the NOAEL (rat [11]; [32]) was ≥ 10 mg/kg/day.
`C=C(C)[C@H]1Cc2c(ccc3c2O[C@@H]2COc4cc(OC)c(OC)cc4[C@@H]2C3=O)O1` [Rotenone] was tested, and the LEL (mouse [12]) was 111 mg/kg/day, the LOAEL (mouse [12]) was > 242 mg/kg/day and the NEL (mouse [12]) was < 111 mg/kg/day. For the same compound, the NOAEL (mouse [12]) was ≥ 242 mg/kg/day, the LOAEL (mouse [13]; [33]) was 111 mg/kg/day and the NOAEL (mouse [13]; [33]) was < 111 mg/kg/day. For the same compound, the LEL (mouse [13]; [34]) was 111 mg/kg/day, the NEL (mouse [13]; [34]) was < 111 mg/kg/day and the LOAEL (dog; [35]) was 10 mg/kg/day. It also gave an NEL (dog; [35]) of 0.4 mg/kg/day, an NOAEL (dog; [35]) of 2 mg/kg/day and an LEL (dog; [34]) of 2 mg/kg/day. The LOAEL (mouse [14]; [36]) was > 7500 mg/kg/day, the NOAEL (mouse [14]; [36]) was ≥ 7500 mg/kg/day and the LEL (mouse [14]; [37]) was 90 mg/kg/day. The NEL (mouse [14]; [37]) was < 90 mg/kg/day, the LOAEL (rat [15]; systemic / in life observation / body weight / body weight + systemic / in life observation / food consumption / food consumption) was 1.88 mg/kg/day and the LEL (rat [15]; [38]) was 1.88 mg/kg/day. The NEL (rat [15]; [38]) was 0.375 mg/kg/day, the NOAEL (rat [15]; [38]) was 0.375 mg/kg/day and the LEL (rat [16]; [39]) was 3.1 mg/kg/day. For the same compound, the LOAEL (rat [16]; [39]) was 3.1 mg/kg/day, the NEL (rat [16]; [39]) was 0.6 mg/kg/day and the NOAEL (rat [16]; [39]) was 0.6 mg/kg/day. The LEL (rat [16]; [40]) was 3 mg/kg/day, the LOAEL (rat [16]; [40]) was 3 mg/kg/day and the NEL (rat [16]; [40]) was 0.6 mg/kg/day. For the same compound, the NOAEL (rat [16]; [40]) was 0.6 mg/kg/day, the LEL (rat [16]; [41]) was 7 mg/kg/day and the LOAEL (rat [16]; [41]) was > 7 mg/kg/day. For the same compound, the NEL (rat [16]; [41]) was 3.1 mg/kg/day, the NOAEL (rat [16]; [41]) was ≥ 7 mg/kg/day and the LEL (rat [17]) was 3.4 mg/kg/day. The LOAEL (rat [17]) was > 3.4 mg/kg/day, the NEL (rat [17]) was 1.7 mg/kg/day and the NOAEL (rat [17]) was ≥ 3.4 mg/kg/day. The LOAEL (rat [18]; [42]) was > 60 mg/kg/day, the NEL (rat [18]; [42]) was 3.75 mg/kg/day and the NOAEL (rat [18]; [42]) was ≥ 60 mg/kg/day. It also gave an LEL (rat [18]; systemic / in life observation / body weight / body weight + systemic / pathology microscopic / bone marrow / atrophy + systemic / pathology…) of 7.5 mg/kg/day, an LOAEL (rat [19]; systemic / pathology microscopic / pituitary gland / hyperplasia + systemic / pathology microscopic / parathyroid gland / hyperplasia) of 3.4 mg/kg/day and an NOAEL (rat [19]; systemic / pathology microscopic / pituitary gland / hyperplasia + systemic / pathology microscopic / parathyroid gland / hyperplasia + …) of 1.7 mg/kg/day. The LEL (rat [19]; [43]) was 1.8 mg/kg/day, the NEL (rat [19]; [43]) was < 1.8 mg/kg/day and the LEL (rat [20]; [44]) was 6 mg/kg/day. It also gave an LOAEL (rat [20]; [44]) of 6 mg/kg/day, an NEL (rat [20]; [44]) of 3 mg/kg/day and an NOAEL (rat [20]; [44]) of 3 mg/kg/day. The LEL (rat [20]; [45]) was 0.75 mg/kg/day, the LOAEL (rat [20]; [45]) was 0.75 mg/kg/day and the NEL (rat [20]; [45]) was < 0.75 mg/kg/day. The NOAEL (rat [20]; [45]) was < 0.75 mg/kg/day.
